Results taken from patent publication US10077271B2, “Methods and compositions for inhibiting the interaction of menin with MLL proteins” (Kura Oncology, Inc., priority 2015, dated 2018).

Target: T1, Menin MLL 4-43 (Homo sapiens, UniProt O00255)
T1 construct: 6His
T1 sequence (O00255 1-610): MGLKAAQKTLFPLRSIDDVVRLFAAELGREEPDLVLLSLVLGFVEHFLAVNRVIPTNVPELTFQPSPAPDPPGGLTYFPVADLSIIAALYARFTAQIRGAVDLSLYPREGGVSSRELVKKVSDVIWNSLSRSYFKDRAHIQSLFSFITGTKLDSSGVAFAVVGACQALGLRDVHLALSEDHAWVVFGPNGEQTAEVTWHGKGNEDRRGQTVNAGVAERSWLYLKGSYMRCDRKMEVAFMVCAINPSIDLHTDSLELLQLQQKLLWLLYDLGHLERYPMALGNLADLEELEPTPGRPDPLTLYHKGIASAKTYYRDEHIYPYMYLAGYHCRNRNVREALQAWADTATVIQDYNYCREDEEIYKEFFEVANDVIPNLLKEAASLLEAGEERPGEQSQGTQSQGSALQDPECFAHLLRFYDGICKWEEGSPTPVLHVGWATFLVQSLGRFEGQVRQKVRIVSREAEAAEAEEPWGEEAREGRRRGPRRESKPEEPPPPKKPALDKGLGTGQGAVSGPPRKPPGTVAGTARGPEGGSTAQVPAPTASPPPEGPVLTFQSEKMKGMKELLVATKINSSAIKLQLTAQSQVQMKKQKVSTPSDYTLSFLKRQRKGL
Assay: Inhibition of the menin-MLL interaction (Menin MLL 4-43 IC50)
Type: binding
Excerpt: This example illustrates an assay effective in monitoring the binding of MLL to menin. […] A fluorescein-labeled peptide containing the high affinity menin binding motif found in MLL is produced according to Yokoyama et al. (Cell, 2005, 123(2): 207-218), herein incorporated by reference in its entirety. Binding of the labeled peptide (1.7 kDa) to the much larger menin (˜67 kDa) is accompanied by a significant change in the rotational correlation time of the fluorophore, resulting in a substantial increase in the fluorescence polarization and fluorescence anisotropy (excitation at 500 nm, emission at 525 nm).
A homogeneous time-resolve fluorescence (HTRF) assay is utilized as a secondary assay to confirm the results of the FP assay. In some embodiments, the HTRF assay is the primary assay and the FP assay is used as a secondary assay to confirm results. HTRF is based on the non-radiative energy transfer of the long-lived emission from the Europium cryptate (Eu^3+-cryptate) donor to the allophycocyanin (XL665) acceptor, combined with time-resolved detection. An Eu^3+-cryptate donor is conjugated with mouse anti-6His monoclonal antibody (which binds His-tagged menin) and XL665-acceptor is conjugate to streptavidin (which binds biotinylated MLL peptide). When these two fluorophores are brought together by the interaction of menin with the MLL peptide, energy transfer to the acceptor results in an increase in fluorescence emission at 665 nm and increased HTRF ratio (emission intensity at 665 nm/emission intensity at 620 nm). Inhibition of the menin-MLL interaction separates the donor from the acceptor, resulting in a decrease in emission at 665 nm and decreased HTRF ratio.

[1] = Formula II inhibitors of menin (Table 4G)
[2] = Formula IV inhibitors of menin (Table 4i)
[3] = Formula V inhibitors of menin (Table 4J)

| SMILES | IC50 [1] [nM] | other results |
| --- | --- | --- |
| Cc1c(CN2CCC(Nc3nc(Cl)nc4sc(CC(F)(F)F)cc34)CC2)ccc2[nH]c(C#N)cc12 [II-7] | > 10000 |  |
| Cc1c(CN2CCC(Nc3nc(N)nc4sc(CC(F)(F)F)cc34)CC2)ccc2c1cc(C#N)n2Cc1cn[nH]c1 [II-4] | ≤ 100 |  |
| FC(F)(F)Cc1cc2c(NC3CCN(Cc4ccc5[nH]ncc5c4)CC3)ncnc2s1 [IV-8] |  | IC50 [2]: 100 to 1000 nM |
| Cc1nc(NC2CCN(Cc3ccc4c(cc(C#N)n4Cc4cn[nH]c4)c3C)CC2)c2cc(CC(F)(F)F)sc2n1 [II-10] | ≤ 100 |  |
| Cc1c(CN2CCC(Nc3nc(C(F)F)nc4sc(CC(F)(F)F)cc34)CC2)ccc2c1cc(C#N)n2Cc1cn[nH]c1 [II-18] | > 10000 |  |
| Cc1c(CN2CC(Nc3ncnc4sc(CC(F)(F)F)cc34)C2)ccc2[nH]c(C#N)cc12 [Compound V-13] |  | IC50 [3]: > 10000 nM |
| Cc1c(CN2CCC(Nc3nc(C(F)(F)F)nc4sc(CC(F)(F)F)cc34)CC2)ccc2[nH]c(C#N)cc12 [II-11] | 100 to 1000 |  |
| Cc1c(CN2CCC(Nc3ncnc4sc(CC(F)(F)F)cc34)C(F)(F)C2)ccc2[nH]c(C#N)cc12 (stereo not drawn) [III-3] |  | IC50 (Formula III inhibitors of menin (Table 4h)): > 10000 nM |
| Cc1c(CN2CCC(Nc3ncnc4sc(CC(F)(F)F)cc34)C2)ccc2[nH]c(C#N)cc12 (stereo not drawn) [Compound V-15] |  | IC50 [3]: > 10000 nM |
| Cc1c(CN2CCC(Nc3ncnc4sc(CC(F)(F)F)cc34)CC2)cnc2[nH]c(C#N)cc12 [IV-2] |  | IC50 [2]: > 10000 nM |
| Cc1c(CN2CCC(Nc3nc(C#N)nc4sc(CC(F)(F)F)cc34)CC2)ccc2c1cc(C#N)n2Cc1cn[nH]c1 [II-14] | 1000 to 10000 |  |
| Cc1c(CN2CCN(C(=O)c3ncnc4sc(CC(F)(F)F)cc34)CC2)ccc2[nH]c(C#N)cc12 [Compound V-3] |  | IC50 [3]: > 10000 nM |
| Cc1c(CN2CCC(Nc3ncnc4sc(CC(F)(F)F)cc34)CC2)ccc2[nH]ncc12 [IV-9] |  | IC50 [2]: 1000 to 10000 nM |
| Cc1c(CN2CCC(Nc3nc(N)nc4sc(CC(F)(F)F)cc34)CC2)ccc2c1cc(C#N)n2Cc1cc[nH]n1 [II-16] | 100 to 1000 |  |
| Cc1c(CN2CCC(Nc3nc(N)nc4sc(CC(F)(F)F)cc34)CC2)ccc2[nH]c(C#N)cc12 [II-3] | ≤ 100 |  |
| C=CC(=O)Nc1ccc(CCC2C(C#N)=Cc3c2ccc(CN2CCC(Nc4nc(N)nc5sc(CC(F)(F)F)cc45)CC2)c3C)cn1 (stereo not drawn) [II-19] | 100 to 1000 |  |
| C#Cc1nc(NC2CCN(Cc3ccc4c(cc(C#N)n4Cc4cn[nH]c4)c3C)CC2)c2cc(CC(F)(F)F)sc2n1 [II-17] | > 10000 |  |
| C=Cc1nc(NC2CCN(Cc3ccc4[nH]c(C#N)cc4c3C)CC2)c2cc(CC(F)(F)F)sc2n1 [II-15] | 100 to 1000 |  |
